Structures can show the parent of a compound that is named as a salt.
Legend:
DLD-1 = experiment: MTT cell viability assay; type: cell-based; conditions: Homo sapiens
Text: (§1) All of the tested cell lines were acquired from the American Type Culture Collection (ATCC, Manassas, VA, USA), including human breast cancer cell lines (MCF-7, MDA-MB-231), human gastric cancer cell line (AGS), human colorectal cancer cell lines (HT-29, DLD-1), human glioblastoma cancer cell lines (T98G, A172), mouse astrocyte type I clone (C8-D1A), human normal epithelial breast cells (MCF-10A) and primary dermal fibroblast (HDFa). Such cell lines as AGS, MCF-7, MDA-MB-231, A172, T98G, C8-D1A, and primary dermal fibroblast (HDFa) were cultured in complete medium–DMEM (Corning, Kennebunk, ME, USA). RPMI-1640 (ATCC, Manassas, VA, USA) was used for the DLD-1 cell line, and McCoy’s 5A (PAN-Biotech, Aidenbach, Germany) for the HT-29 cell line. To all utilized media additionally was added 10% fetal bovine serum (FBS) (Eurx, Gdansk, Poland) and 1% penicillin and streptomycin solution (Corning, Kennebunk, ME, USA). MCF-10A cells were incubated in MEGM (Mammary Epithelial Cell Growth Medium) BulletKit supplemented with penicillin/streptomycin cocktail and 5% horse serum. All cells were cultured at 37 °C in an atmosphere with 5% CO₂ in tissue culture dishes (Sarstedt, Numbrecht, Germany). For experiments, cells were washed with phosphate-buffered saline (PBS) (Corning, Kennebunk, ME, USA) followed by the addition of 0.05% trypsin with 0.02% EDTA (Corning, Kennebunk, ME, USA). Scepter 3.0 cell counter (Merck Millipore, Burlington, MA, USA) was applied before each seeding to calculate the number of cells. For the next analyses, cells were reseeded in 6-well plates, 24-well plates, and 96-well plates.
(§2) MTT (3-(4,5-dimethylthiazol-2-yl)-2,5-diphenyltetrazolium bromide) assay method was utilized to analyze compound effects on cell viability. All cell lines were seeded in 96-well plates with 1 × 10^4 cells per well. After 24 h, cells were treated with the tested compounds and reference drug at concentrations of 0.1, 1, 2.5, 5, 10, and 20 µM for 24, 48, or 72 h. Next, a solution of 3-(4,5-dimethyl-2-thiazolyl)-2,5-diphenyl-2H-tetrazolium bromide (Sigma-Aldrich, St. Louis, MO, USA) in PBS with a concentration of 5 mg/mL was prepared. After the incubation with tested compounds, 10 µL of the prepared MTT solution was applied to each well, followed by 2 h of incubation at 37 °C. Next, cells underwent lysis by adding 100 µL of pre-prepared lysing buffer (containing 25 mM HCl, 2% acetic acid, 3% DMF, and 5% SDS, with a pH of 4.7). The absorbance was measured using a UV-VIS Helios Gamma (Unicam/ThermoFisher Scientific Inc., Cleveland, OH, USA) at 570 nm wavelength. The cells incubated with vehicle substance (0.1% DMSO) were taken as controls.
(§3) To investigate the cytotoxic potential of the newly synthesized compounds, a comprehensive assessment was conducted utilizing the MTT assay. This assay was applied on a diverse panel of cell lines, such as human breast cancer cell lines (MCF-7 and MDA-MB-231), human gastric cancer cell line (AGS), human colorectal cancer cell lines (HT-29 and DLD-1), human glioblastoma cancer cell lines (T98G and A172), mouse astrocyte type I clone cells (C8-D1A), primary dermal fibroblast (HDFa), and human normal breast cells (MCF-10A) for 24, 48, and/or 72 h.

A172 = experiment: MTT cell viability assay; type: cell-based; conditions: Homo sapiens
Text: as §1, §2, §3

HT-29 = experiment: MTT cell viability assay; type: cell-based; conditions: Homo sapiens
Text: as §1, §2, §3

T98G = experiment: MTT cell viability assay; type: cell-based; conditions: Homo sapiens
Text: as §1, §2, §3

[1] = tested on: Primary Dermal Fibroblast (HDFa); experiment: MTT cell viability assay; type: cell-based; conditions: Homo sapiens, normal cells
Text: as §1, §2, §3

AGS = experiment: MTT cell viability assay; type: cell-based; conditions: Homo sapiens
Text: as §1, §2, §3

MCF-7 = experiment: MTT cell viability assay; type: cell-based; conditions: Homo sapiens
Text: as §1, §2, §3

MCF-7 cells = experiment: Annexin V-FITC/propidium iodide flow cytometry; type: cell-based, human; conditions: 24 h; for viability at 5 µM: MCF7, 5 µM
Description: The MCF-7 cells were seeded on 6-well plates (1 × 10^5 cells per well) and incubated for 24 h. Afterwards, the cells were washed, and tested compounds (Les-6416, Les-6418, Les-6381, Les-6423, and Les-6424) were added in a concentration of 5 µM. The reference drug doxorubicin hydrochloride was applied in a concentration of 0.5 µM. The cells were incubated with the compounds for 24 h. Afterwards, the cells were washed several times with cold PBS and the cell suspensions were prepared in the binding buffer from the kit at a concentration of 1 × 10^6 cells/mL. A total of 100 µL of suspension was collected from each sample and transferred to the tubes. After that, 5 µL of Annexin V-FITC and 5 µL of propidium iodide were added. After 15 min of incubation at room temperature in a dark environment, the content of the tubes was filled with binding buffer up to 500 µL and assessed by BD FACSCanto II flow cytometer (Becton Dickinson Biosciences, San Jose, CA, USA). A total of 1 × 10^4 events were measured for each sample. The results were investigated by applying FACSDiva software Version 6.1.3. (BD Biosciences Systems, San Jose, CA, USA).
To assess the effects of novel compounds on apoptosis, we utilized flow cytometry analysis with Annexin V-FITC and Propidium Iodide double staining. In this way, we could distinguish between different cell populations based on their state: unstained or alive cells, cells stained with propidium iodide or necrotic cells, cells only stained with FITC-labeled annexin V or early apoptotic cells, and cells stained with both annexin V and propidium iodide or late apoptotic cells.

C8-D1A = experiment: MTT cell viability assay; type: cell-based; conditions: Mus musculus, normal cells
Text: as §1, §2, §3

MCF7 = type: cell-based
[2] = Homo sapiens, read-out: Viable cells, cell population

| SMILES | IC50 (DLD-1; DLD-1 24 h) [µM] | IC50 (DLD-1; DLD-1 48 h) [µM] | IC50 (A172; A 172, A172 24 h) [µM] | IC50 (A172; A 172, A172 48 h) [µM] | IC50 (HT-29; HT-29 24 h) [µM] | IC50 (HT-29; HT-29 48 h) [µM] | IC50 (T98G; T98G 24 h) [µM] | IC50 (T98G; T98G 48 h) [µM] | IC50 ([1]; HDFa 24 h) [µM] | IC50 ([1]; HDFa 48 h) [µM] | IC50 ([1]; HDFa 72 h) [µM] | IC50 (AGS; AGS 24 h) [µM] | IC50 (AGS; AGS 48 h) [µM] | IC50 (MCF-7; MCF7, MCF-7 24 h) [µM] | IC50 (MCF-7; MCF7, MCF-7 48 h) [µM] | IC50 (MCF-7; MCF7, MCF-7 72 h) [µM] | viability at 5 µM (MCF-7 cells; [2]) [%] | IC50 (C8-D1A; C8-D1A 24 h) [µM] | IC50 (C8-D1A; C8-D1A 48 h) [µM] | Early apoptotic cells, cell population (MCF-7 cells; 5 µM) [%] | also measured |
| --- | --- | --- | --- | --- | --- | --- | --- | --- | --- | --- | --- | --- | --- | --- | --- | --- | --- | --- | --- | --- | --- |
| COc1ccc(C=C2SC(Nc3cc(OC)c(OC)c(OC)c3)=NC2=O)cc1 [Les-6381, 5-(4-Methoxybenzylidene)-2-((3,4,5-trimethoxyphenyl)amino)thiazol-4(5H)-one] | 18.2 ± 1.24 | 3.86 ± 0.11 | > 20 | 8.65 ± 0.52 | > 20 | 4.58 ± 0.46 | 13.1 ± 0.24 | 4.09 ± 0.1 | > 20 | > 20 | > 20 | > 20 | 2.24 ± 0.31 | 6.93 ± 0.13 | 7.93 ± 0.1 | 2.43 ± 0.12 | 49.6 |  |  |  |  |
| COc1cc(NC2=NC(=O)C(=Cc3ccc4cc[nH]c4c3)S2)cc(OC)c1OC [Les-6416, 5-((1H-Indol-6-yl)methylene)-2-((3,4,5-trimethoxyphenyl)amino)thiazol-4(5H)-one] | > 20 | > 20 | > 20 | > 20 | > 20 | 6.58 ± 0.37 | > 20 | > 20 | > 20 | > 20 | > 20 | > 20 | 3.45 ± 0.2 | 4.7 ± 0.06 | 2.09 ± 0.05 | 1.29 ± 0.01 | 39.8 | 14.3 ± 1.52 | 7.1 ± 0.73 | 8.23 ± 2.56 | Growth % (MCF7; MCF-7, 10 μM, one dose, 48 h): 6.76%; Late apoptotic cells, cell population (MCF-7 cells; 5 µM): 45.63 ± 10.29%; Necrotic cells, cell population (MCF-7 cells; 5 µM): 0.07 ± 0.06% |
| COc1cccc2c1C(=O)c1c(O)c3c(c(O)c1C2=O)C[C@@](O)(C(=O)CO)C[C@@H]3O[C@H]1C[C@H](N)[C@H](O)[C@H](C)O1 [DOX, Doxorubicin hydrochloride, reference compound] | 4.69 ± 0.48 | 0.6 ± 0.08 | > 20 | 12.9 ± 0.89 | > 20 | 0.3 ± 0.04 | > 20 | > 20 | > 20 | > 20 | 0.99 ± 0.03 | > 20 | 0.39 ± 0.01 | 2.46 ± 0.54 | 0.81 ± 0.01 | 0.26 ± 0.03 |  | > 20 | 0.25 ± 0.01 |  | Necrotic cells, cell population (MCF-7 cells; 0.5 µM): 27.23 ± 3.76%; viability at 0.5 µM (MCF-7 cells; Homo sapiens, MCF7, 0.5 µM, read-out: Viable cells, cell population): 59.6% |
| COc1cc(NC2=NC(=O)C(=Cc3cccs3)S2)cc(OC)c1OC [Les-6423, 5-(Thiophen-2-ylmethylene)-2-((3,4,5-trimethoxyphenyl)amino)thiazol-4(5H)-one] | > 20 | > 20 | > 20 | > 20 | > 20 | 4.41 ± 0.35 | > 20 | > 20 | > 20 | > 20 | > 20 | > 20 | 14.5 ± 0.57 | > 20 | > 20 | > 20 | 90 |  |  |  | proapoptotic effect in comparison to the control (MCF-7 cells; 5 µM): did not have any statistically significant results |
| COc1cc(NC2=NC(=O)C(=Cc3c[nH]c4ccccc34)S2)cc(OC)c1OC [Les-6418, 5-((1H-Indol-3-yl)methylene)-2-((3,4,5-trimethoxyphenyl)amino)thiazol-4(5H)-one] | > 20 | > 20 | > 20 | > 20 | > 20 | 7.77 ± 0.91 | 16.9 ± 1.58 | > 20 | > 20 | > 20 | > 20 | > 20 | 4.59 ± 0.42 | > 20 | 4.51 ± 0.04 | 2.24 ± 0.07 | 47.7 | 12.9 ± 0.24 | 7.42 ± 2.33 | 7.55 ± 1.17 | GI50 (MCF7; Homo sapiens, MCF7, 48 h): 1.79 µM; CC50 (MCF7; Homo sapiens, MCF7, 48 h, read-out: LC50 (the source's name)): 44.7 µM; TGI (MCF7; MCF7, 48 h): 11.9 µM; SI (TGI) (MCF7; MCF7, MG_MID_60/value): 1.56; Late apoptotic cells, cell population (MCF-7 cells; 5 µM): 44.68 ± 8.18%; Necrotic cells, cell population (MCF-7 cells; 5 µM): 0.13 ± 0.05% |

Reference: PMC12190436, “5-Ene-2-arylaminothiazol-4(5H)-ones Induce Apoptosis in Breast Cancer Cells” (Cells, 2025)
